Source: patent US11458123B2 (Arvinas, Inc., priority 2016, dated 2022)

Test system: tau protein
Assay: Tau protein in vitro degradation assay (Western blot, Tau-13 antibody)
Type: cell-based, human
Settings: SK-N-SH cells, 72 hours of incubation; for Degradation activity* (highest amount of degradation observed at any dosage; tau protein remaining) / Degradation activity (tau protein remaining; highest amount of degradation observed at any dosage): tested at 300 nM, 100 nM, 33 nM and 11 nM, Western blot, Tau-13 antibody; for Activity* (highest amount of degradation observed at any dosage, as tau protein remaining): tested at 1000 nM, 300 nM and 100 nM
Summary of the method: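 Tau degradation read by Tau-13 Western blot (detects all human tau forms) of SDS-PAGE-resolved lysates from SK-N-SH cells. Cells were plated at least 18 h before 72 h exposure to PROTACs at either 1000/300/100 nM or 300/100/33/11 nM.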

With `Cc1ncsc1-c1ccc([C@H](C)NC(=O)[C@@H]2C[C@@H](O)CN2C(=O)[C@@H](NC(=O)COCCOCCOCCOCCOc2ncc(-c3ccc4c(c3)[nH]c3ccncc34)cc2C(F)(F)F)C(C)(C)C)cc1` [Compound 119, (2S,4R)-1-((S)-17-((5-(5H-pyrido[4,3-b]indol-7-yl)-3-(trifluoromethyl)pyridin-2-yl)oxy)-2-(tert-butyl)-4-oxo-6,9,12,15-tetraoxa-3-azaheptadecanoyl)-4-hydroxy-N—((S)-1-(4-(4-methylthiazol-5-yl)phenyl)ethyl)pyrrolidine-2-carboxamide] the “Degradation activity* (highest amount of degradation observed at any dosage; tau protein remaining)” value was “C (>80% tau protein remaining after 72 hours of incubation with the test compound)”.
For `Cc1ncsc1-c1ccc(CNC(=O)[C@@H]2C[C@@H](O)CN2C(=O)[C@@H](NC(=O)COCCOCCOCC(O)COc2ccc3nc(-c4ccc(N(C)C)cc4)ccc3c2)C(C)(C)C)cc1` (stereo partly drawn) [Compound 43, (2S,4R)-1-((2S)-2-(tert-butyl)-15-((2-(4-(dimethylamino)phenyl)quinolin-6-yl)oxy)-14-hydroxy-4-oxo-6,9,12-trioxa-3-azapentadecanoyl)-4-hydroxy-N-(4-(4-methylthiazol-5-yl)benzyl)pyrrolidine-2-carboxamide], the “Activity* (highest amount of degradation observed at any dosage, as tau protein remaining)” value was “C (>80% tau protein remaining after 72 hours of incubation with the test compound)”.
`CN(C)c1ccc(-c2ccc3cc(OCCCOCCOCCOCCOCCNc4cccc5c4C(=O)N(C4CCC(=O)NC4=O)C5=O)ccc3n2)cc1` (centres unmarked) [Compound 40, 4-(15-(2-(4-(dimethylamino)phenyl)quinolin-6-yloxy)-3,6,9,12-tetraoxapentadecylamino)-2-(2,6-dioxopiperidin-3-yl)isoindoline-1,3-dione] was tested, and the “Activity* (highest amount of degradation observed at any dosage, as tau protein remaining)” value was “C (>80% tau protein remaining after 72 hours of incubation with the test compound)”.
With `O=C1CCC(N2C(=O)c3ccc(OCCCc4ccc(O[C@H]5C[C@H](Oc6ccc(-c7ccc8c(c7)[nH]c7ccncc78)cn6)C5)cn4)cc3C2=O)C(=O)N1` (some centres unmarked) [Compound 77, 5-(3-(5-((1r,3r)-3-((5-(5H-pyrido[4,3-b]indol-7-yl)pyridin-2-yl)oxy)cyclobutoxy)pyridin-2-yl)propoxy)-2-(2,6-dioxopiperidin-3-yl)isoindoline-1,3-dione] the “Degradation activity* (highest amount of degradation observed at any dosage; tau protein remaining)” value was “C (>80% tau protein remaining after 72 hours of incubation with the test compound)”.
For `Cn1c2ccncc2c2ccc(-c3ccc(N4CCC(CN5CCN(c6ccc7c(c6)CN(C6CCC(=O)NC6=O)C7=O)CC5)CC4)nc3)cc21` (centres unmarked) [Compound 127, 3-(5-(4-((1-(5-(5-methyl-5H-pyrido[4,3-b]indol-7-yl)pyridin-2-yl)piperidin-4-yl)methyl)piperazin-1-yl)-1-oxoisoindolin-2-yl)piperidine-2,6-dione], the “Degradation activity* (highest amount of degradation observed at any dosage; tau protein remaining)” value was “C (>80% tau protein remaining after 72 hours of incubation with the test compound)”.
In the case of `Cn1c2ccncc2c2ccc(-c3ccc(O[C@H]4C[C@H](OCCCOCCCOC5CN(c6ccc7c(c6)CN(C6CCC(=O)NC6=O)C7=O)C5)C4)nc3)cc21` (some centres unmarked) [Compound 177, 3-(5-(3-(3-(3-((1r,3r)-3-((5-(5-methyl-5H-pyrido[4,3-b]indol-7-yl)pyridin-2-yl)oxy)cyclobutoxy)propoxy)propoxy)azetidin-1-yl)-1-oxoisoindolin-2-yl)piperidine-2,6-dione], the “Degradation activity (tau protein remaining; highest amount of degradation observed at any dosage)” value is reported as “A (≤50% tau protein remaining after 72 hours of incubation with the test compound)”.
For `O=C1CCC(N2C(=O)c3ccc(OCCOCCOCCOCCOCCOc4ccc(-c5ccc6c7cnccc7n(CC(F)(F)F)c6c5)cn4)cc3C2=O)C(=O)N1` (centres unmarked) [Compound 88, 2-(2,6-dioxopiperidin-3-yl)-5-((14-((5-(5-(2,2,2-trifluoroethyl)-5H-pyrido[4,3-b]indol-7-yl)pyridin-2-yl)oxy)-3,6,9,12-tetraoxatetradecyl)oxy)isoindoline-1,3-dione], the “Degradation activity* (highest amount of degradation observed at any dosage; tau protein remaining)” value was “A (≤50% tau protein remaining after 72 hours of incubation with the test compound)”.
`Cn1c2ccncc2c2ccc(-c3ccc(OCCCCCOCCOC(CC4CCN(c5ccc6c(c5)C(=O)N(C5CCC(=O)NC5=O)C6=O)CC4)C(F)(F)F)nc3)cc21` (centres unmarked) [Compound 89, 2-(2,6-dioxopiperidin-3-yl)-5-(4-(3,3,3-trifluoro-2-(2-((5-((5-(5-methyl-5H-pyrido[4,3-b]indol-7-yl)pyridin-2-yl)oxy)pentyl)oxy)ethoxy)propyl)piperidin-1-yl)isoindoline-1,3-dione] was tested, and the “Degradation activity* (highest amount of degradation observed at any dosage; tau protein remaining)” value was “C (>80% tau protein remaining after 72 hours of incubation with the test compound)”.
With `Cn1c2ccncc2c2ccc(-c3ccc(O[C@H]4C[C@H](Oc5ccc(CCCCCCOc6ccc7c(c6)C(=O)N(C6CCC(=O)NC6=O)C7=O)cn5)C4)nc3)cc21` (some centres unmarked) [Compound 110, 2-(2,6-dioxopiperidin-3-yl)-5-((6-(6-((1r,3r)-3-((5-(5-methyl-5H-pyrido[4,3-b]indol-7-yl)pyridin-2-yl)oxy)cyclobutoxy)pyridin-3-yl)hexyl)oxy)isoindoline-1,3-dione] the “Degradation activity* (highest amount of degradation observed at any dosage; tau protein remaining)” value was “C (>80% tau protein remaining after 72 hours of incubation with the test compound)”.
For `O=C1CCC(N2Cc3cc(OCC#Cc4ccc(O[C@H]5C[C@H](Oc6ccc(-c7ccc8c(c7)[nH]c7ccncc78)cn6)C5)cn4)ccc3C2=O)C(=O)N1` (some centres unmarked) [Compound 180, 3-(5-((3-(5-((1r,3r)-3-((5-(5H-pyrido[4,3-b]indol-7-yl)pyridin-2-yl)oxy)cyclobutoxy)pyridin-2-yl)prop-2-yn-1-yl)oxy)-1-oxoisoindolin-2-yl)piperidine-2,6-dione], the “Degradation activity (tau protein remaining; highest amount of degradation observed at any dosage)” value was “A (≤50% tau protein remaining after 72 hours of incubation with the test compound)”.
`Cc1ncoc1-c1ccc([C@H](C)NC(=O)[C@@H]2C[C@@H](O)CN2C(=O)[C@@H](NC(=O)COCCOCCOCCOCC(=O)N2CCN(c3ccn4c(n3)nc3ccccc34)CC2)C(C)(C)C)cc1` [Compound 22, (2S,4R)-1-((S)-17-(4-(benzo[4,5]imidazo[1,2-a]pyrimidin-2-yl)piperazin-1-yl)-2-(tert-butyl)-4,17-dioxo-6,9,12,15-tetraoxa-3-azaheptadecanoyl)-4-hydroxy-N—((S)-1-(4-(4-methyloxazol-5-yl)phenyl)ethyl)pyrrolidine-2-carboxamide] was tested, and the “Activity* (highest amount of degradation observed at any dosage, as tau protein remaining)” value was “C (>80% tau protein remaining after 72 hours of incubation with the test compound)”.
`Cc1ncsc1-c1ccc([C@H](C)NC(=O)[C@@H]2C[C@@H](O)CN2C(=O)[C@@H](NC(=O)COCCOCCOCC(=O)N2CCN(c3ccn4c(n3)nc3ccccc34)CC2)C(C)(C)C)cc1` [Compound 17, (2S,4R)-1-((S)-14-(4-(benzo[4,5]imidazo[1,2-a]pyrimidin-2-yl)piperazin-1-yl)-2-(tert-butyl)-4,14-dioxo-6,9,12-trioxa-3-azatetradecanoyl)-4-hydroxy-N—((S)-1-(4-(4-methylthiazol-5-yl)phenyl)ethyl)pyrrolidine-2-carboxamide] was tested, and the “Activity* (highest amount of degradation observed at any dosage, as tau protein remaining)” value was “C (>80% tau protein remaining after 72 hours of incubation with the test compound)”.
`Cn1c2ccncc2c2ccc(-c3ccc(O[C@H]4C[C@H](OCCCC(F)(F)CN5CC6(C5)CN(c5ccc7c(c5)C(=O)N(C5CCC(=O)NC5=O)C7=O)C6)C4)nc3)cc21` (some centres unmarked) [Compound 150, 5-(6-(2,2-difluoro-5-((1r,3r)-3-((5-(5-methyl-5H-pyrido[4,3-b]indol-7-yl)pyridin-2-yl)oxy)cyclobutoxy)pentyl)-2,6-diazaspiro[3.3]heptan-2-yl)-2-(2,6-dioxopiperidin-3-yl)isoindoline-1,3-dione] was tested, and the “Degradation activity* (highest amount of degradation observed at any dosage; tau protein remaining)” value was “B (≤80% and >50% tau protein remaining after 72 hours of incubation with the test compound)”.
With `Cn1c2ccncc2c2ccc(-c3ccc(OC4CN(C(=O)C56CC(CCCCCCCOc7ccc8c(c7)C(=O)N(C7CCC(=O)NC7=O)C8=O)(C5)C6)C4)nc3)cc21` (centres unmarked) [Compound 184, 2-(2,6-dioxopiperidin-3-yl)-5-((7-(3-(3-((5-(5-methyl-5H-pyrido[4,3-b]indol-7-yl)pyridin-2-yl)oxy)azetidine-1-carbonyl)bicyclo[1.1.1]pentan-1-yl)heptyl)oxy)isoindoline-1,3-dione] the “Degradation activity (tau protein remaining; highest amount of degradation observed at any dosage)” value was “A (≤50% tau protein remaining after 72 hours of incubation with the test compound)”.
In the case of `Cn1c2ccncc2c2ccc(-c3ccc(O[C@H]4C[C@H](OCCCOCCCOC5CN(c6ccc7c(c6)C(=O)N(C6CCC(=O)NC6=O)C7=O)C5)C4)nc3)cc21` (some centres unmarked) [Compound 104, 2-(2,6-dioxopiperidin-3-yl)-5-(3-(3-(3-((1r,3r)-3-((5-(5-methyl-5H-pyrido[4,3-b]indol-7-yl)pyridin-2-yl)oxy)cyclobutoxy)propoxy)propoxy)azetidin-1-yl)isoindoline-1,3-dione], the “Degradation activity* (highest amount of degradation observed at any dosage; tau protein remaining)” value is reported as “A (≤50% tau protein remaining after 72 hours of incubation with the test compound)”.
In the case of `Cn1c2ccncc2c2ccc(-c3ccc(OCCOCCOCCOCCOCCOc4ccc5c(c4)C(=O)N(C4CCC(=O)NC4=O)C5=O)nc3C(F)(F)F)cc21` (centres unmarked) [Compound 143, 2-(2,6-dioxopiperidin-3-yl)-5-((14-((5-(5-methyl-5H-pyrido[4,3-b]indol-7-yl)-6-(trifluoromethyl)pyridin-2-yl)oxy)-3,6,9,12-tetraoxatetradecyl)oxy)isoindoline-1,3-dione], the “Degradation activity* (highest amount of degradation observed at any dosage; tau protein remaining)” value is reported as “B (≤80% and >50% tau protein remaining after 72 hours of incubation with the test compound)”.
In the case of `O=C1CCC(N2C(=O)c3ccc(OCCOCC#Cc4ccc(O[C@H]5C[C@H](Oc6ccc(-c7ccc8c(c7)[nH]c7ccncc78)cn6)C5)cc4)cc3C2=O)C(=O)N1` (some centres unmarked) [Compound 188, 5-(2-((3-(4-((1r,3r)-3-((5-(5H-pyrido[4,3-b]indol-7-yl)pyridin-2-yl)oxy)cyclobutoxy)phenyl)prop-2-yn-1-yl)oxy)ethoxy)-2-(2,6-dioxopiperidin-3-yl)isoindoline-1,3-dione], the “Degradation activity (tau protein remaining; highest amount of degradation observed at any dosage)” value is reported as “B (≤80% and >50% tau protein remaining after 72 hours of incubation with the test compound)”.
